In patent publication US10004786B2 (Zealand Pharma A/S, priority 2009, dated 2018):
Numbered stars: 1 amine (or outer) side, 2 acyl side, 3 side chain; on linkers, the order of the positions; unused ones are H or OH. Square brackets hold non-standard residues; d marks the D form. Side chains are listed from the residue outwards. Peptide text beside a SMILES is read from it. * marks the point of attachment. γGlu = O=C(O)[C@H](CCC(=O)[*:2])N[*:1]; Palmitoyl = CCCCCCCCCCCCCCCC(=O)*; Aib = CC(C)(N)C(=O)O

Assays:
[1] = Pharmacokinetic screening in mouse plasma after subcutaneous administration; assay type: in vivo; conditions: sc, mice, 100 nmol/kg s.c., * = only two time points used for calculation
Method: Mice were dosed 100 nmol/kg subcutaneously (s.c.). The mice were sacrificed and the blood collected at the following time points; 0.5, 2, 4, 6, 16 and 24 h. Plasma samples were analyzed using protein precipitation, followed by solid phase extraction (SPE) and liquid chromatography mass spectrometry (LC-MS).
Pharmacokinetic profiles were determined for various acylated compounds.

[2] = Oral glucose tolerance test after 21 days s.c. administration in long term high fat fed mice; assay type: in vivo; conditions: 10 nmol/kg, long term high fat-fed C57BL/6J mice, two way ANOVA
Method: (§1) Male mice (Long term high fat fed C57Bl/6J, short term high fat fed C57Bl/6J and db/db) were acclimatized with free access to food and water. They were housed in groups of 5-6 in a light-, temperature-, and humidity-controlled room (12-hour light:12-hour dark cycle, lights On/Off at 2000/0800 hour; 24° C.; 50% relative humidity).
(§2) The animals were injected s.c. with 100 μl vehicle (once a day) for a period of three days to acclimatize the animals to handling and injections. Blood samples were taken from the eye or from the tip of the tail. The animals were randomized before treatment.
(§3) Mice were treated twice daily s.c. with GluGLP-1 agonist or vehicle (injection volume=2.5 ml/kg). Throughout the study, body weights were recorded daily and used to administer the body weight-corrected doses of peptide. Peptide solutions were prepared fresh immediately before dosing.
Oral glucose tolerance tests (OGTT) were performed after subjecting the animals to a short fast. To prevent confounding food intake, the animals were kept fasted during the OGTTs. After peptide dosing an initial blood sample was taken. […] The whole blood glucose (BG) was measured at t=15 min, t=30 min, t=60 min, t=90 min and t=120 min.
The BG concentration was analyzed by the immobilized glucose oxidase method using a drop of blood (<5 μl; Elite Autoanalyser, Bayer, Denmark) following the manufacturer's instructions. […]

[3] = HbA1c in db/db mice after 28 days; assay type: in vivo; conditions: 4 weeks, 12.7 nmol/kg, P=0.03 Students t-test
Method: as §1, §2
Mice were treated twice daily s.c. with GluGLP-1 agonist or vehicle (injection volume=2.5 ml/kg). Throughout the study, body weights were recorded daily and used to administer the body weight-corrected doses of peptide. Peptide solutions were prepared fresh immediately before dosing. […]
The HbA1c determination is based on Turbidimetric INhibition ImmunoAssay (TINIA) in which HbA1c in the sample reacts with anti-HbA1c to form soluble antigen-antibody complexes. Additions of polyhaptens react with excess anti-HbA1c antibodies to form an insoluble antibody-polyhapten complex, which can be measured turbidimetrically. Liberated hemoglobin in the hemolyzed sample is converted to a derivative having a characteristic absorption spectrum, which is measured bichromatically during the preincubation phases. […]

[4] = Body weight after 21 days s.c. administration in long term high fat fed mice; assay type: in vivo; conditions: 21 days b.i.d. s.c., 10 nmol/kg, long term high fat-fed C57BL/6J mice; p<0.05
Method: as §1, §2, §3
Effect of 21 days s.c. administration of compound 11 on body weight was determined in long term high fat-fed C57BL/6J mice. C57Bl/6J male mice on high fat diet (HFD) were treated (b.i.d.; s.c.) with compound 11 (10 nmol/kg) or vehicle. Body weights were recorded daily and used to administer the body weight-corrected doses of peptide throughout the study. Data are shown as mean±SEM in FIG. 4.

[5] = Body weight gain in high fat fed C57BL/6J mice (10 days); assay type: in vivo; conditions: 5 nmol/kg b.i.d. s.c., short term high fat-fed C57BL/6J mice
Method: C57Bl/6J male mice, 6 weeks old, were acclimatized in their new environment for 4 weeks with free access to high fat diet (HFD) (D12492, Research Diet Inc., New Brunswick, USA) and water. The animals were injected s.c. with 100 μl vehicle for a period of three days to acclimatize the animals to handling and injections, prior to initiation of peptide treatment. […] Throughout the study, body weights were recorded daily and used to administer the body weight-corrected doses of peptide. All animals were sacrificed on the same day by cervical dislocation.
C57Bl/6J male mice on high fat diet (HFD) were treated (b.i.d.; s.c.) (0.5 and 5 nmol/kg) or vehicle. Body weights were recorded daily and used to administer the body weight-corrected doses of peptide throughout the study. Data are shown as mean±SEM in FIG. 7.

[6] = Plasma lipids after 3 weeks s.c. administration in 30 weeks high fat diet fed mice; assay type: in vivo, C57BL/6J mice; conditions: 10 nmol/kg twice daily s.c.
Method: The assay is an enzymatic colorimetric method. In the presence of magnesium ions, dextran sulfate selectively forms water-soluble complexes with LDL, VLDLA and chylomicrons, which are resistant to PEG-modified enzymes. The HDL cholesterol is determined enzymatically by cholesterol esterase and cholesterol oxidase coupled with PEG to the amino groups. Cholesterol esters are broken down quantitatively to free cholesterol and fatty acids. HDL cholesterol is enzymatically oxidized to choles-4-en-3-one and H2O2, and the formed H2O2 is measured colorimetrically (Cobas®; Application note HDLC3).
The direct determination of LDL takes advantage of the selective micellary solubilization of LDL by a nonionic detergent and the interaction of a sugar compound and lipoproteins (VLDL and chylomicrons). The combination of a sugar compound with detergent enables the selective determination of LDL in plasma. The test principle is the same as that of cholesterol and HDL, but due to the sugar and detergent only LDL-cholesterol esters are broken down to free cholesterol and fatty acids. Free cholesterol is then oxidized and the formed H2O2 is measured colorimetrically (Application note LDL_C, Cobas®).
The effect was measured on LDL, HDL and triglycerids (CHO: Total Cholesterol; HDL: High Density Cholesterol; LDL: Low Density Cholesterol; TRIG: Triglycerides; HDL/LDL: Ratio between HDL and LDL).

[7] = Liver weight/body weight of C57BL/6J mice treated for 2 weeks; assay type: in vivo
Method: Mice were treated twice daily s.c. with Cpd. 1 and Cpd. 11 (at two doses: 0.5 and 5 nmol/kg) or vehicle for 2 weeks. Throughout the study, body weights were recorded daily and used to administer the body weight-corrected doses of peptide. On the day of sacrifice, the liver was exposed, and weighed.

In the case of `CCCCCCCCCCCCCCCC(=O)N[C@@H](CCC(=O)NCCCC[C@H](NC(=O)[C@H](CO)NC(=O)[C@H](CC(=O)O)NC(=O)[C@H](CC(C)C)NC(=O)[C@H](Cc1ccc(O)cc1)NC(=O)[C@H](CCCCN)NC(=O)[C@H](CO)NC(=O)[C@H](Cc1ccc(O)cc1)NC(=O)[C@H](CC(=O)O)NC(=O)[C@H](CO)NC(=O)[C@@H](NC(=O)[C@H](Cc1ccccc1)NC(=O)[C@@H](NC(=O)CNC(=O)[C@H](CCC(N)=O)NC(=O)C(C)(C)NC(=O)[C@@H](N)Cc1c[nH]cn1)[C@@H](C)O)[C@@H](C)O)C(=O)N[C@@H](C)C(=O)N[C@@H](C)C(=O)N[C@@H](Cc1c[nH]cn1)C(=O)N[C@@H](CC(=O)O)C(=O)N[C@@H](Cc1ccccc1)C(=O)N[C@H](C(=O)N[C@@H](CCC(=O)O)C(=O)N[C@@H](Cc1c[nH]c2ccccc12)C(=O)N[C@@H](CC(C)C)C(=O)N[C@@H](CC(C)C)C(=O)N[C@@H](CCCNC(=N)N)C(=O)N[C@@H](C)C(N)=O)C(C)C)C(=O)O` [Compound 11] (H-H[Aib]QGTFTSDYSKYLDSK([γGlu-Palmitoyl])AAHDFVEWLLRA-NH2), the half-life [1] was 4.9 h, the oral glucose tolerance [2] was “significantly improved glucose tolerance” and the “ΔHbA1c (%) compared to vehicle” value [3] was “decreased ΔHbA1c (%) significantly”. For the same molecule, the body weight [4] was “significantly decreased body weight”, the “body weight gain, high dose” value [5] was “significantly decreased body weight gain at the high dose” and the HDL ([6]; P<0.001) was “significantly decreased”. The LDL ([6]; P<0.001) was “significantly decreased”, the “cholesterol (total)” value ([6]; P<0.001) was “significantly decreased” and the triglycerides ([6]; P<0.05) was “significantly decreased”. The “ratio HDL/LDL” value ([6]; p<0.001) was “increased significantly”, the “liver weight/body weight ratio, low dose” value ([7]; 0.5 nmol/kg twice daily s.c.) was “did not affect” and the “liver weight/body weight ratio, high dose” value ([7]; 5 nmol/kg twice daily s.c.) was “did not affect”. For the same molecule, the “change in liver size” value ([7]; repeated treatment, C57 healthy control mice, compared with compound 1) was “do not give rise to change in liver size”.
